According to patent publication US20080019916A1, “Methods and pharmaceuticals for treating muscle insulin resistance and related conditions” (University of Tasmania, priority 2001, published 2008):

Assays:
[1] = test system: anaesthetised rats; assay: hyperinsulinaemic euglycaemic clamp in anaesthetised rats with 1-MX metabolism, glucose uptake and haemodynamic monitoring; type: in vivo, rat
From the text: From present knowledge there would appear to be at least three possible mechanisms to account for insulin-mediated capillary recruitment in skeletal muscle. Firstly and most likely, insulin may act at insulin receptors on endothelial cells and an IRS-1/2, PI3-K pathway to activate eNOS to produce NO, which in turn permeates adjacent vascular smooth muscle cells to activate soluble guanylyl cyclase and lower the vascular tone of pre-capillary sphincters. In favour of this mechanism is the fact that this process is NO-dependent and is thus consistent with our preliminary data (FIG. 4). There is compelling evidence that insulin acts directly through insulin receptors on endothelial cells to control nutritive capillary flow in skin. Secondly, insulin may act at insulin receptors on the vascular smooth muscle cells (22) via IRS-1/2, PI3-K, NOS, cGMP, MBP (myosin bound phosphatase) sequence to cause vasorelaxation. This mechanism would be NO-dependent, free of endothelial cell involvement in signalling and attractive as TNFα is known to inhibit insulin signalling in vascular smooth muscle cells, although to date this has been restricted to the ERK1/2 activation step (23). This mechanism would also lead ultimately to the activation of guanylyl cyclase and the production of cyclic GMP. Thirdly, insulin may act at insulin receptors on skeletal muscle to activate glucose transport and metabolism by the IRS-1/2, PI3-K, GLUT4 pathway to produce a metabolite (e.g. adenosine) that permeates adjacent tissue to react with appropriate receptors on endothelial/vascular smooth muscle cells to result in vasorelaxation. […] FIG. 4. The effect of L-NAME on insulin mediated increases in hindleg glucose uptake (FIG. 4a) and 1-MX metabolism (FIG. 4b) was examined. Euglycemic clamp conditions (10 mU/min/kg) were conducted for 2 h. […] This latter mechanism would resemble that occurring in exercise where vasodilatory metabolite(s) are released locally by working muscle to facilitate local blood flow and would be inhibited by agents (e.g. glucosamine) that inhibit muscle glucose metabolism. All three mechanisms should be wortmannin sensitive as PI3-K is expected to be involved. A variant of this third mechanism is where a form of NOS is activated in skeletal muscle independently of glucose metabolism. NO could then permeate neighbouring tissue as above. The terminal half of this fourth possible mechanism should be simulated by AMPK activation with AICAR addition (24). Overall, given that the mechanism of capillary recruitment by insulin in rat muscle is NO-dependent (FIG. 4) and that NO acts by producing cyclic GMP, agents that might enhance capillary recruitment by insulin should be targeted to enhance insulin's production of NO or cyclic GMP. In principle, 1-methylxanthine (1-MX) is an exogenous substrate for an enzyme located predominantly in the nutritive capillary endothelial cells (much less so in the non-nutritive route and myocytes). Consequently, passage of blood borne 1-MX through the nutritive vascular route leads to its conversion to the product 1-methylurate (1-MU). Chromatographic analysis of arterial and venous samples for 1-MX and 1-MU together with the total blood flow rate over the muscle bed allows the calculation of 1-MX metabolism. A number of our studies using the perfused rat hindlimb have shown tight correlation between nutritive flow (or the proportion of nutritive/non-nutritive flow) and 1-MX metabolism (12,13). Assay of new drugs acting to increase capillary recruitment in the presence of endogenous or exogenous insulin. This is done in an optional two tier manner, firstly in anaesthetized rats using the hyperinsulinaemic euglycaemic clamp (14) and secondly, in human forearm using a localized hyperinsulinaemic euglycaemic clamp (17). The initial testing in rats is optional, but allows rapid identification of those agents likely to be effective in humans. […]

[2] = test system: skeletal muscle of the rat hindlimb; assay: contrast enhanced ultrasound/microbubbles (CEU) measurement of capillary blood volume in rat hindlimb muscle; type: in vivo
From the text: A second method was devised using the latest technologies in ultrasound. The ultrasound method relies on the increased echogenicity of albumin microbubbles which are continuously infused intravenously during data acquisition. The acoustic signal that is generated from the microbubbles when exposed to ultrasound produces tissue opacification which is proportional to the number of microbubbles within the ultrasound beam. Using harmonic pulsing methods essentially all microbubbles within the ultrasound beam are destroyed in response to a single pulse of high-energy ultrasound and an image is obtained. In the time interval between subsequent pulsing episodes, microbubbles flowing into the tissue are replenished within the beam and affect the intensity of the signal from the next high energy pulse. Repeating this process with pulse delays between 50 msec and 20 sec, the beam will be fully replenished and further increases in the time between each pulsing interval will not produce a change to tissue opacification. The rate of microbubble reappearance within the ultrasound beam provides an indication of capillary velocity and the degree of tissue opacification provides a measurement of capillary blood volume (CBV). Images are background-subtracted from images from a pulsing interval of 1000 ms which represents the replenishment of arteries and arterioles thus providing a measurement of capillary flow. The plateau tissue opacification (measured as videointensity) is the determination of capillary blood volume. Using this approach, changes in capillary blood volume in response to insulin and exercise have recently been assessed in the skeletal muscle of the rat hindlimb in vivo and compared to data obtained using 1-MX metabolism (ref 16; FIG. 1). FIG. 1. Comparison of the effect of saline, insulin (3 mU/min/kg, euglycemic clamp×120 min) or muscle contraction (2 Hz, 1 ms duration, monophasic square waves×10 min) on capillary blood volume as measured by microbubble videointensity using contrast enhanced ultrasound (FIG. 1a) or the hindlimb extraction of 1-MX (FIG. 1b) measured under identical conditions. […] Exercise is regarded by most physiologists as a “bench-mark” stimulus for capillary recruitment. […] A particular advantage of the ultrasound method is that it is relatively non-invasive and is suitable for human use (17). This opens up possibilities for its use in diagnosis in terms of impaired capillary recruitment in response to insulin and the monitoring of outcomes from therapeutic interventions that might act by increasing capillary recruitment. The ultrasound method relies on the increased echogenicity of albumin microbubbles that are continuously infused intravenously during data acquisition. […]

[3] = test system: skeletal muscle of the rat hindlimb; conditions: physiologic doses of insulin (3 mU/min/kg clamp); cited from earlier work
[4] = insulin 3 mU/min/kg, anesthetized rat, before vs after, FIG. 7c
[5] = infused with sub-maximal physiologic dose of insulin, vs insulin alone, FIG. 5b

Molecule: NC(=O)c1ncn([C@@H]2O[C@H](CO)[C@@H](O)[C@H]2O)c1N [AICAR, 5-aminoimidazole-4-carboxamide-1-β-D-ribofuranoside]
- insulin-mediated hindleg glucose uptake ([1]; infused with insulin, vs insulin alone, P<0.05, FIG. 6b): markedly enhanced
- capillary recruitment as indicated by CEU (capillary blood volume) ([2]; infused alone, without insulin, FIG. 6a): recruited capillary flow on its own

Molecule: insulin: hormone infused in euglycemic clamp
- capillary blood volume (microbubble videointensity, CEU) ([2]; euglycemic insulin clamp 3 mU/min/kg, 120 min, vs baseline/saline, FIG. 1a): marked increases
- plateau videointensity (A), microvascular volume [2, 4]: clearly higher
- rate of microvascular filling (β) [2, 4]: no change
- increase in capillary blood volume [3]: 2-3 fold

Molecule: COC(=O)[C@@H](N)CCCNC(=N)N[N+](=O)[O-] [L-NAME]
- insulin-mediated increase in femoral blood flow (FBF) ([1]; euglycemic clamp 10 mU/min/kg, 2 h, n=5): blocked the increase in FBF
- mean arterial blood pressure ([1]; euglycemic clamp 10 mU/min/kg, 2 h, n=5, raised from 100±4): 125±5 mmHg

Molecule: CCCOc1ccccc1-c1nc(=O)c2[nH]nnc2[nH]1 [Zaprinast, 1,4-dihydro-5-(2-propoxyphenyl)-7H-1,2,3-triazolo(4,5-d)pyrimidin-7-one]
- insulin-mediated capillary recruitment (hindleg 1-MX metabolism) ([1]; infused with sub-maximal physiologic dose of insulin, vs insulin alone, FIG. 5a): significantly (P<0.05) enhanced
- insulin-mediated glucose appearance (Ra) [1, 5]: significantly (P<0.05) enhanced
- insulin-mediated glucose disposal (Rd) [1, 5]: significantly (P<0.05) enhanced

Molecule: TNFα
- effect on insulin-mediated capillary recruitment ([1]; rats treated with the cytokine in vivo): completely block
